In patent US8629168B2, “Benzoxazoles and oxazolopyridines being useful as janus kinases inhibitors” (priority 2006, dated 2014):

What follows are molecules tested against T1, GST-JAK2(808-1132) (Homo sapiens, UniProt O60674) (assay: EPK JAK/TYK-kinase family profiling assay (Caliper mobility shift), JAK2). Details: Caliper mobility shift assay of Example 187, 20 μM ATP, read-out: IC50 with Test in present Example.
T1 construct: GST-JAK2(808-1132) is purchased from Invitrogen; purchased Invitrogen (Carlsbad, USA) #4288
T1 sequence (O60674 808-1132): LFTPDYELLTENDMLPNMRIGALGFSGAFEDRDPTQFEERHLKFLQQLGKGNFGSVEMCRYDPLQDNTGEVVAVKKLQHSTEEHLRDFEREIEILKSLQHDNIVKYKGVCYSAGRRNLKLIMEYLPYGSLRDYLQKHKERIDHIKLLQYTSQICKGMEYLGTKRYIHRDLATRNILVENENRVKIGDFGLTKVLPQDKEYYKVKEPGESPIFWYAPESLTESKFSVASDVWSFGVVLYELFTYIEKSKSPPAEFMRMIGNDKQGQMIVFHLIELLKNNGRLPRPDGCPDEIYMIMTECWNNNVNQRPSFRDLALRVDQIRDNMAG
Format: biochemical
Method in brief: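 Caliper mobility-shift assay with the GST-tagged kinase domain and a fluorescently labeled peptide substrate plus ATP, run 60 min at 30° C and then stopped with EDTA buffer. Turnover was taken as the substrate/product ratio. Compounds were tested at eight final concentrations from 10 to 0.003 μM.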

IC50 [µM]	Compound
0.0165	Cc1cc(Nc2nc3cccc(-c4ccc(S(C)(=O)=O)cc4)c3o2)ccc1N1CCN(CCN(C)C)CC1 [Example 100, {4-[4-(2-Dimethylamino-ethyl)-piperazin-1-yl]-3-methyl-phenyl}-[7-(4-methanesulfonyl-phenyl)-benzooxazol-2-yl]-amine]
0.02	Cc1cc(Nc2nc3cccc(-c4ccc(S(C)(=O)=O)cc4)c3o2)ccc1N1CCN(C(C)C)CC1 [Example 105, [4-(4-Isopropyl-piperazin-1-yl)-3-methyl-phenyl]-[7-(4-methanesulfonyl-phenyl)-benzooxazol-2-yl]-amine]
0.08	Cc1cc(Nc2nc3cccc(-c4cc(F)c(CN5CCOCC5)c(F)c4)c3o2)cn(C)c1=O [Example 161, 5-[7-(3,5-Difluoro-4-morpholin-4-ylmethyl-phenyl)-benzooxazol-2-ylamino]-1,3-dimethyl-1H-pyridin-2-one]
0.00685	CN1CCN(c2ccc(Nc3nc4cccc(-c5cc(F)c(CN6CCS(=O)(=O)CC6)c(F)c5)c4o3)cc2)CC1 [Example 95, {7-[4-(1,1-Dioxo-1lambda*6*-thiomorpholin-4-ylmethyl)-3,5-difluoro-phenyl]-benzooxazol-2-yl}-[4-(4-methyl-piperazin-1-yl)-phenyl]-amine]
0.0048	CCN1CCN(c2ccc(Nc3nc4cccc(-c5ccc(CN6CCOCC6)c(F)c5)c4o3)cc2C)CC1 [Example 87, [4-(4-Ethyl-piperazin-1-yl)-3-methyl-phenyl]-[7-(3-fluoro-4-morpholin-4-ylmethyl-phenyl)-benzooxazol-2-yl]-amine]
0.026	CCN1CCN(c2ccc(Nc3nc4ccnc(-c5cc(F)c(CN6CCS(=O)(=O)CC6)c(F)c5)c4o3)cc2C)CC1 [Example 153, {4-[4-(1,1-Dioxo-1lambda*6*-thiomorpholin-4-ylmethyl)-3,5-difluoro-phenyl]-oxazolo[5,4-c]pyridin-2-yl}-[4-(4-ethyl-piperazin-1-yl)-3-methyl-phenyl]-amine]
0.0111	Cc1cc(Nc2nc3cccc(-c4cc(F)c(CN5CCOCC5)c(F)c4)c3o2)ccc1C(=O)NCCN(C)C [Example 122, 4-[7-(3,5-Difluoro-4-morpholin-4-ylmethyl-phenyl)-benzooxazol-2-ylamino]-N-(2-dimethylamino-ethyl)-2-methyl-benzamide]
0.0195	CCN1CCN(Cc2ccc(Nc3nc4cccc(-c5ccc(C(=O)N6CCOCC6)c(F)c5)c4o3)cc2C)CC1 [Example 119, (4-{2-[4-(4-Ethyl-piperazin-1-ylmethyl)-3-methyl-phenylamino]-benzooxazol-7-yl}-2-fluoro-phenyl)-morpholin-4-yl-methanone]
0.0111	Cc1cc(Nc2nc3cccc(-c4ccc(C(=O)N5CCOCC5)c(C)c4)c3o2)ccc1CN1CCOCC1 [Example 166, {2-Methyl-4-[2-(3-methyl-4-morpholin-4-ylmethyl-phenylamino)-benzooxazol-7-yl]-phenyl}-morpholin-4-yl-methanone]
0.0135	Cc1cc(-c2cccc3nc(Nc4ccc(N5CCN(C6CC6)CC5)c(C)c4)oc23)ccc1C(=O)N1CCOCC1 [Example 155, (4-{2-[4-(4-Cyclopropyl-piperazin-1-yl)-3-methyl-phenylamino]-benzooxazol-7-yl}-2-methyl-phenyl)-morpholin-4-yl-methanone]
0.025	COc1cc(Nc2nc3cccc(-c4ccc(C(=O)N5CCOCC5)cc4)c3o2)ccc1C(=O)N(C)C [Example 150, 2-Methoxy-N,N-dimethyl-4-{7-[4-(morpholine-4-carbonyl)-phenyl]-benzooxazol-2-ylamino}-benzamide]
0.0165	COc1cc(Nc2nc3cccc(-c4ccc(CO)cc4)c3o2)cc(OC)c1OC [Example 143, {4-[2-(3,4,5-Trimethoxy-phenylamino)-benzooxazol-7-yl]-phenyl}-methanol]
0.00515	Cc1cc(Nc2nc3cccc(-c4ccc(CC(=O)N5CCOCC5)c(F)c4)c3o2)ccc1C(=O)N1CCN(C)CC1 [Example 73, 2-(2-Fluoro-4-{2-[3-methyl-4-(4-methyl-piperazine-1-carbonyl)-phenylamino]-benzooxazol-7-yl}-phenyl)-1-morpholin-4-yl-ethanone]
0.0117	Cc1cc(Nc2nc3cccc(-c4ccc(C(C)(C)C(=O)N5CCOCC5)cc4)c3o2)ccc1N1CCN(C2CC2)CC1 [Example 157, 2-(4-{2-[4-(4-Cyclopropyl-piperazin-1-yl)-3-methyl-phenylamino]-benzooxazol-7-yl}-phenyl)-2-methyl-1-morpholin-4-yl-propan-1-one]
0.015	CCN1CCN(c2ccc(Nc3nc4cccc(-c5ccc(C(=O)N6CCS(=O)(=O)CC6)cc5)c4o3)cc2C)CC1 [Example 116, (1,1-Dioxo-1lambda*6*-thiomorpholin-4-yl)-(4-{2-[4-(4-ethyl-piperazin-1-yl)-3-methyl-phenylamino]-benzooxazol-7-yl}-phenyl)-methanone]
0.062	COC(=O)c1ccc(Nc2nc3cccc(-c4ccc(C(=O)N5CCOCC5)cc4)c3o2)cc1OC [Example 149, 2-Methoxy-4-{7-[4-(morpholine-4-carbonyl)-phenyl]-benzooxazol-2-ylamino}-benzoic acid methyl ester]
0.0062	Cc1cc(Nc2nc3cccc(-c4ccc(CC(=O)N5CCOCC5)cc4)c3o2)ccc1C(=O)N(C)C [Example 70, 2,N,N-Trimethyl-4-{7-[4-(2-morpholin-4-yl-2-oxo-ethyl)-phenyl]-benzooxazol-2-ylamino}-benzamide]
0.011	CCN1CCN(c2ccc(Nc3nc4cccc(-c5cc(F)c(C(=O)N6CCOCC6)c(F)c5)c4o3)cc2C)CC1 [Example 109, (4-{2-[4-(4-Ethyl-piperazin-1-yl)-3-methyl-phenylamino]-benzooxazol-7-yl}-2,6-difluoro-phenyl)-morpholin-4-yl-methanone]
0.0275	CN1CCN(c2ccc(Nc3nc4cccc(-c5ccc(C(C)(C)C(=O)N6CCOCC6)cc5)c4o3)cc2)CC1 [Example 151, 2-Methyl-2-(4-{2-[4-(4-methyl-piperazin-1-yl)-phenylamino]-benzooxazol-7-yl}-phenyl)-1-morpholin-4-yl-propan-1-one]
0.017	Cc1cc(Nc2nc3cccc(-c4ccc(C[S+](C)[O-])cc4)c3o2)ccc1C(=O)N(C)C (stereo not drawn) [Example 81, 4-[7-(4-Methanesulfinylmethyl-phenyl)-benzooxazol-2-ylamino]-2,N,N-trimethyl-benzamide]
< 0.003	Cc1cc(Nc2nc3cccc(-c4ccc(CN5CCS(=O)(=O)CC5)cc4)c3o2)ccc1C(=O)N(C)C [Example 79, 4-{7-[4-(1,1-Dioxo-1lambda*6*-thiomorpholin-4-ylmethyl)-phenyl]-benzooxazol-2-ylamino}-2,N,N-trimethyl-benzamide]
0.0295	CCN(CC)C(=O)c1ccc(Nc2nc3cccc(-c4cc(F)c(CN5CCN(C(C)=O)CC5)c(F)c4)c3o2)cc1C [Example 117, 4-{7-[4-(4-Acetyl-piperazin-1-ylmethyl)-3,5-difluoro-phenyl]-benzooxazol-2-ylamino}-N,N-diethyl-2-methyl-benzamide]
0.03	COc1ccc(Nc2nc3cccc(-c4ccc(C(=O)N5CCOCC5)c(C)c4)c3o2)cc1N1CCN(C)CC1 [Example 127, (4-{2-[4-Methoxy-3-(4-methyl-piperazin-1-yl)-phenylamino]-benzooxazol-7-yl}-2-methyl-phenyl)-morpholin-4-yl-methanone]
0.028	COCCNC(=O)c1ccc(Nc2nc3cccc(-c4ccc(CC(=O)N5CCOCC5)cc4)c3o2)cc1 [Example 147, N-(2-Methoxy-ethyl)-4-{7-[4-(2-morpholin-4-yl-2-oxo-ethyl)-phenyl]-benzooxazol-2-ylamino}-benzamide]
0.0048	Cc1cc(-c2cccc3nc(Nc4ccc(N5CCN(C)CC5)cc4)oc23)ccc1C(=O)N1CCOCC1 [Example 82, (2-Methyl-4-{2-[4-(4-methyl-piperazin-1-yl)-phenylamino]-benzooxazol-7-yl}-phenyl)-morpholin-4-yl-methanone]
0.0062	CN1CCN(c2ccc(Nc3nc4cccc(-c5ccc(C(=O)N6CCS(=O)(=O)CC6)c(F)c5)c4o3)cc2)CC1 [Example 80, (1,1-Dioxo-1lambda*6*-thiomorpholin-4-yl)-(2-fluoro-4-{2-[4-(4-methyl-piperazin-1-yl)-phenylamino]-benzooxazol-7-yl}-phenyl)-methanone]
0.039	CNC(=O)c1ccc(Nc2nc3cccc(-c4cc(F)c(CN5CCOCC5)c(F)c4)c3o2)cc1C [Example 120, 4-[7-(3,5-Difluoro-4-morpholin-4-ylmethyl-phenyl)-benzooxazol-2-ylamino]-2,N-dimethyl-benzamide]
